The target of one experiment is T1, SMARCA2 (Homo sapiens, UniProt P51531).
T1 construct: SMARCA2-HiBiT knock-in Hela monoclonal cell (CS302366); host or cells: HeLa monoclonal cells with heterozygous HiBiT knock-in at the endogenous SMARCA2 locus
The experiment is described as follows: SMARCA2 HiBiT degradation assay in HeLa cells. It counts as cell-based. To be noted: 18 hours, highest concentration 10 μM. In short, it runs like this: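 HeLa cells carrying a heterozygous C-terminal HiBiT knock-in on SMARCA2 were seeded at 2500 cells/well. They were treated with 3-fold dilution series, top concentration 10 μM, for 18 h at 37 °C. Remaining SMARCA2-HiBiT was measured by Nano-Glo HiBiT lytic luminescence after 30-60 min at RT, followed by curve fitting.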

A further experiment concerns the target T2, SMARCA4 (Homo sapiens, UniProt P51532).
T2 construct: SMARCA4-HiBiT knock-in Hela monoclonal cell (CS3023226); host or cells: HeLa monoclonal cells with heterozygous HiBiT knock-in at the endogenous SMARCA4 locus
The experiment in a line: SMARCA4 HiBiT degradation assay in HeLa cells. To be noted: 18 hours, highest concentration 10 μM. It counts as cell-based. Put shortly: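 HeLa monoclonal cells with HiBiT knocked into SMARCA4 were seeded at 2500 cells/well, dosed with compound and incubated 18 hours at 37° C. HiBiT signal reported remaining SMARCA4 protein, and values came from curve fitting.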
In general terms: With HiBiT, luminescence reflects the tagged protein that the partner subunit can reach.

T1 sequence (P51531 whole entry): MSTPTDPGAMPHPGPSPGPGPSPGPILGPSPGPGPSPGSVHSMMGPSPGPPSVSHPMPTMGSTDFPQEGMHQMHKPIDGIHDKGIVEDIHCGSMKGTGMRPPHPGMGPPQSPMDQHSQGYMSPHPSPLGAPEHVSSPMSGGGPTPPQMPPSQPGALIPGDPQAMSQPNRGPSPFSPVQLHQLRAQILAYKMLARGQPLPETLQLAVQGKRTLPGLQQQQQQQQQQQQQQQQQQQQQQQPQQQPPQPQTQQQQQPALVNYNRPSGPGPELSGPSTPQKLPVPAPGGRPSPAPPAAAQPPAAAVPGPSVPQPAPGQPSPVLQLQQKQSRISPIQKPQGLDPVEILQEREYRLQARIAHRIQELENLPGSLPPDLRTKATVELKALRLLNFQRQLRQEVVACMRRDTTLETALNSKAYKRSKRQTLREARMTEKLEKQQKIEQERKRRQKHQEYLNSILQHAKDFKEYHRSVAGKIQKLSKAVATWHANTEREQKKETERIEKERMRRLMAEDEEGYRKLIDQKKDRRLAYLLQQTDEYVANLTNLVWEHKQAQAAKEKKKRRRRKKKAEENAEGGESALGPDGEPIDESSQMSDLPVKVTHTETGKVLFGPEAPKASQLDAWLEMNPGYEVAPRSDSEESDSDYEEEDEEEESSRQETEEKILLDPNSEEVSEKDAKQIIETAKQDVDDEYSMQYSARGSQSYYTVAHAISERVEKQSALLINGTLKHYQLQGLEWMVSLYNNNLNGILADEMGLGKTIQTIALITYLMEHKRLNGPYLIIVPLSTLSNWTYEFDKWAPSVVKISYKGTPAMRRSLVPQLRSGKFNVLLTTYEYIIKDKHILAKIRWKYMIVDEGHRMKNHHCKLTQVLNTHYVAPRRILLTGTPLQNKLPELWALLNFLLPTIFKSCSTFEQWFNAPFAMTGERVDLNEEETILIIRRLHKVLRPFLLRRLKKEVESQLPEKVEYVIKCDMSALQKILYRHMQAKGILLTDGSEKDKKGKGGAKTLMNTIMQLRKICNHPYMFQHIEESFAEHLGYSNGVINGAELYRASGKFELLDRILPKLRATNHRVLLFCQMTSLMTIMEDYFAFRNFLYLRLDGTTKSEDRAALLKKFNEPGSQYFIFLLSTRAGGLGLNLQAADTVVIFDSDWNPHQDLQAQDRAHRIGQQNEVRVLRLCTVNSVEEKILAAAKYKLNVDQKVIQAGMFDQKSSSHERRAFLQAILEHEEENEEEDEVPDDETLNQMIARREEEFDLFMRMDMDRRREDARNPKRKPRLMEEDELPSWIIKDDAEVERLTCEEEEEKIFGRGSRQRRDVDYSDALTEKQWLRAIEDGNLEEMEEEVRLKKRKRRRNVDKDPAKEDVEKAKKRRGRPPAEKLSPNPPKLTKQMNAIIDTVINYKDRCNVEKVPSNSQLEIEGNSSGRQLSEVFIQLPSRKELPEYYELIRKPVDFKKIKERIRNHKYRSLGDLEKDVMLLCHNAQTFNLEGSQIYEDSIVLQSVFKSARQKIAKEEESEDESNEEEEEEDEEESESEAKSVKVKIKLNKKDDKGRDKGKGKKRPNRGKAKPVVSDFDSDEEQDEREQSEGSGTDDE
T2 sequence (P51532 whole entry): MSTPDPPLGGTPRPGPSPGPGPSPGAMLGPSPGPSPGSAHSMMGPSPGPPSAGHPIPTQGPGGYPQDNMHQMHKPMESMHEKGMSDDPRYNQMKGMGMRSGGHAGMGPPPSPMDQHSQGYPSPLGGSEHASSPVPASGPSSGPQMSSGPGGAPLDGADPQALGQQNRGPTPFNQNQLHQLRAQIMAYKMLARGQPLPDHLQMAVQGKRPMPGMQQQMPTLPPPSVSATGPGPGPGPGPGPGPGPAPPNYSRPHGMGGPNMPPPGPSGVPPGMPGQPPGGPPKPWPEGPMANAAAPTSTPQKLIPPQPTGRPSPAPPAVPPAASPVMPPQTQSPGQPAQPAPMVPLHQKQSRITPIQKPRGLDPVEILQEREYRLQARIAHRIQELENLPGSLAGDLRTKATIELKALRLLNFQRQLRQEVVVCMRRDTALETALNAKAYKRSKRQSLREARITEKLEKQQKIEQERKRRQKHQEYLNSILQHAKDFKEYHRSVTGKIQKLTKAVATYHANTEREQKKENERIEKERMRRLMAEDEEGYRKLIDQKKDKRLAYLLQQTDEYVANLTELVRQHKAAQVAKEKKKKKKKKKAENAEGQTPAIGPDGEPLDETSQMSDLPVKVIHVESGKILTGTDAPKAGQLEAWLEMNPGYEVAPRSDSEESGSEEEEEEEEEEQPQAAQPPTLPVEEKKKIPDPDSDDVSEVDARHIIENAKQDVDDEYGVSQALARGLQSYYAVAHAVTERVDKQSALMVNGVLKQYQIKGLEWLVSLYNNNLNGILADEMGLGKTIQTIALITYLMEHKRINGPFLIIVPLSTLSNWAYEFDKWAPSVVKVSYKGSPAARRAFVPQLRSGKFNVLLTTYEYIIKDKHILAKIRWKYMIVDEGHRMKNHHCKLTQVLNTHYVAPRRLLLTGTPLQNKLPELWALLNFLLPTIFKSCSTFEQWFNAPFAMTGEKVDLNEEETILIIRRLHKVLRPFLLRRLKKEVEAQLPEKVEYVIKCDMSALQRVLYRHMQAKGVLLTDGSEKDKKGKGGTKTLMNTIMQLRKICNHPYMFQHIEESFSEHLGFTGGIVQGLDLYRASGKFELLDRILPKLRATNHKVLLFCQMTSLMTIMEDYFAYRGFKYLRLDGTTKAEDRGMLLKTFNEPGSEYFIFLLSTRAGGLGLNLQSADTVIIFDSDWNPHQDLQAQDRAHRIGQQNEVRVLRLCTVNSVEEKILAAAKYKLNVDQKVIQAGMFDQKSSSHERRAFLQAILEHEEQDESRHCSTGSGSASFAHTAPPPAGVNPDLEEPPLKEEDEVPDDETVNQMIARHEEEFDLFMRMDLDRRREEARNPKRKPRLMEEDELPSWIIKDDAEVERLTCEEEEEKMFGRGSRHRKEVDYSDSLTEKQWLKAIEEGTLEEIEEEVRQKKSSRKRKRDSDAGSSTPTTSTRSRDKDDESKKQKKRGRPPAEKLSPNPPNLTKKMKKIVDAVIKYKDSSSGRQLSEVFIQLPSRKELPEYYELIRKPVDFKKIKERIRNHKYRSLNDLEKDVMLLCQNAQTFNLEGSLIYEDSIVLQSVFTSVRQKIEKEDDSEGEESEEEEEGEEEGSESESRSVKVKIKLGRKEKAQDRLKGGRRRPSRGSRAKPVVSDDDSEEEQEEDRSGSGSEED

In general, DC50 refers to the concentration at which degradation of the target reaches its halfway point. The low end stands for a more potent degrader, the high end for a less potent degrader. What is called Dmax is the greatest extent of degradation seen. Regarding `CCc1cc(CN2CCN(c3ccc4c(c3)C(=O)N([C@H]3CCC(=O)NC3=O)C4)CC2)cnc1O[C@H]1CN2c3cc(-c4cccc(F)c4O)nnc3NC[C@@]2(C(F)F)C1` [Example 44, (S)-3-(6-(4-((6-(((6aR,8R)-6a-(difluoromethyl)-2-(3-fluoro-2-hydroxyphenyl)-5,6,6a,7,8,9-hexahydropyrrolo[1′,2′:4,5]pyrazino[2,3-c]pyridazin-8-yl)oxy)-5-ethylpyridin-3-yl)methyl)piperazin-1-yl)-1-oxoisoindolin-2-yl)piperidine-2,6-dione], at SMARCA2, the DC50 was < 100 nM and the Dmax is > 75%. The DC50 at SMARCA4 is 100 to 1000 nM.

For `Cc1c(O[C@H]2CN3c4cc(-c5cccc(F)c5O)nnc4NC[C@@]3(C(F)F)C2)cnc(CN2CCN(c3ccc4c(c3)C(=O)N([C@H]3CCC(=O)NC3=O)C4)CC2)c1F` [Example 45, (S)-3-(6-(4-((5-(((6aR,8R)-6a-(difluoromethyl)-2-(3-fluoro-2-hydroxyphenyl)-5,6,6a,7,8,9-hexahydropyrrolo[1′,2′:4,5]pyrazino[2,3-c]pyridazin-8-yl)oxy)-3-fluoro-4-methylpyridin-2-yl)methyl)piperazin-t-yl)-1-oxoisoindolin-2-yl)piperidine-2,6-dione], on SMARCA2, the DC50 is < 100 nM and the greatest degradation seen (Dmax) is 50 to 75%. Also, at SMARCA4, the DC50 is > 1000 nM and the Dmax is < 50%.

With `Cc1c(O[C@H]2CN3c4cc(-c5cccc(F)c5O)nnc4NC[C@]3(C(F)F)C2)cnc(CN2CCN(c3ccc4c(c3)C(=O)N([C@H]3CCC(=O)NC3=O)C4)CC2)c1C` [Example 46, (S)-3-(6-(4-((5-(((6aS,8R)-6a-(difluoromethyl)-2-(3-fluoro-2-hydroxyphenyl)-5,6,6a,7,8,9-hexahydropyrrolo [1′,2′:4,5]pyrazino[2,3-c]pyridazin-8-yl)oxy)-3,4-dimethylpyridin-2-yl)methyl)piperazin-1-yl)-1-oxoisoindolin-2-yl)piperidine-2,6-dione], on SMARCA2, the DC50 is < 100 nM and the Dmax was > 75%. Besides, on SMARCA4, the DC50 was < 100 nM and the Dmax is > 75%.

In the case of `CCc1cc(CN2CCN(c3ccc4c(c3)C(=O)N([C@H]3CCC(=O)NC3=O)C4)CC2)cnc1O[C@H]1CN2c3cc(-c4cccc(F)c4O)nnc3NC[C@]2(C(F)F)C1` [Example 47, (S)-3-(6-(4-((6-(((6aS,8R)-6a-(difluoromethyl)-2-(3-fluoro-2-hydroxyphenyl)-5,6,6a,7,8,9-hexahydropyrrolo [1′,2′:4,5]pyrazino[2,3-c]pyridazin-8-yl)oxy)-5-ethylpyridin-3-yl)methyl)piperazin-1-yl)-1-oxoisoindolin-2-yl)piperidine-2,6-dione], at SMARCA2, the DC50 was < 100 nM and the greatest degradation seen (Dmax) was > 75%. Besides, at SMARCA4, the DC50 is < 100 nM and the Dmax is > 75%.

Take `Cc1nc(O[C@H]2CN3c4cc(-c5cccc(F)c5O)nnc4NC[C@]3(C(F)F)C2)c(C)nc1CN1CCN(c2ccc3c(c2)C(=O)N([C@H]2CCC(=O)NC2=O)C3)CC1` [Example 48, (S)-3-(6-(4-((5-(((6aS,8R)-6a-(difluoromethyl)-2-(3-fluoro-2-hydroxyphenyl)-5,6,6a,7,8,9-hexahydropyrrolo[1′,2′:4,5]pyrazino[2,3-c]pyridazin-8-yl)oxy)-3,6-dimethylpyrazin-2-yl)methyl)piperazin-1-yl)-1-oxoisoindolin-2-yl)piperidine-2,6-dione]: at SMARCA2, the DC50 was < 100 nM and the Dmax lay within 50 to 75%. Moreover, at SMARCA4, the DC50 is 100 to 1000 nM and the Dmax was < 50%.

With `O=C1CC[C@H](N2Cc3ccc(N4CCN(Cc5ccc(O[C@H]6CN7c8cc(-c9cccc(F)c9O)nnc8NC[C@]7(C(F)F)C6)cn5)CC4)cc3C2=O)C(=O)N1` [Example 49, (S)-3-(6-(4-((5-(((6aS,8R)-6a-(difluoromethyl)-2-(3-fluoro-2-hydroxyphenyl)-5,6,6a,7,8,9-hexahydropyrrolo [1′,2′:4,5]pyrazino[2,3-c]pyridazin-8-yl)oxy)pyridin-2-yl)methyl)piperazin-1-yl)-1-oxoisoindolin-2-yl)piperidine-2,6-dione], on SMARCA2, the DC50 is < 100 nM and the Dmax is > 75%. In addition, on SMARCA4, the DC50 was 100 to 1000 nM and the Dmax was < 50%.

On to `CC(C)c1nc(O[C@H]2CN3c4cc(-c5cccc(F)c5O)nnc4NC[C@]3(C(F)F)C2)ncc1CN1CCN(c2ccc3c(c2)C(=O)N(C2CCC(=O)NC2=O)C3)CC1` (stereo partly drawn) [Example 50, 3-(6-(4-((2-(((6aS,8R)-6a-(difluoromethyl)-2-(3-fluoro-2-hydroxyphenyl)-5,6,6a,7,8,9-hexahydropyrrolo [1′,2′:4,5]pyrazino[2,3-c]pyridazin-8-yl)oxy)-4-isopropylpyrimidin-5-yl)methyl)piperazin-1-yl)-1-oxoisoindolin-2-yl)piperidine-2,6-dione], for which, at SMARCA2, the DC50 is < 100 nM and the Dmax is > 75%. For the same compound, on SMARCA4, the DC50 is < 100 nM and the Dmax lay within 50 to 75%.

In the case of `Cc1nc(O[C@H]2CN3c4cc(-c5cccc(F)c5O)nnc4NC[C@]3(C(F)F)C2)cnc1CN1CCN(c2ccc3c(c2)C(=O)N(C2CCC(=O)NC2=O)C3)CC1` (stereo partly drawn) [Example 51, 3-(6-(4-((5-(((6aS,8R)-6a-(difluoromethyl)-2-(3-fluoro-2-hydroxyphenyl)-5,6,6a,7,8,9-hexahydropyrrolo[1′,2′:4,5]pyrazino[2,3-c]pyridazin-8-yl)oxy)-3-methylpyrazin-2-yl)methyl)piperazin-1-yl)-1-oxoisoindolin-2-yl)piperidine-2,6-dione], on SMARCA2, the DC50 is < 100 nM and the Dmax was > 75%. At SMARCA4, the half-maximal degradation concentration (DC50) was > 1000 nM and the Dmax was < 50%.

Regarding `O=C1CCC(N2Cc3ccc(N4CCN(Cc5cnc(O[C@H]6CN7c8cc(-c9cccc(F)c9O)nnc8NC[C@]7(C(F)F)C6)cn5)CC4)cc3C2=O)C(=O)N1` (stereo partly drawn) [Example 52, 3-(6-(4-((5-(((6aS,8R)-6a-(difluoromethyl)-2-(3-fluoro-2-hydroxyphenyl)-5,6,6a,7,8,9-hexahydropyrrolo[1′,2′:4,5]pyrazino[2,3-c]pyridazin-8-yl)oxy)pyrazin-2-yl)methyl)piperazin-1-yl)1-oxoisoindolin-2-yl)piperidine-2,6-dione], on SMARCA2, the DC50 was < 100 nM and the greatest degradation seen (Dmax) was > 75%. On SMARCA4, the DC50 was > 1000 nM and the Dmax was < 50%.

In the case of `COc1cc(CN2CCN(c3ccc4c(c3)C(=O)N(C3CCC(=O)NC3=O)C4)CC2)cnc1O[C@H]1CN2c3cc(-c4cccc(F)c4O)nnc3NC[C@]2(C(F)F)C1` (stereo partly drawn) [Example 53, 3-(6-(4-((6-(((6aS,8R)-6a-(difluoromethyl)-2-(3-fluoro-2-hydroxyphenyl)-5,6,6a,7,8,9-hexahydropyrrolo[1′,2′:4,5]pyrazino[2,3-c]pyridazin-8-yl)oxy)-5-methoxypyridin-3-yl)methyl)piperazin-1-yl)-1-oxoisoindolin-2-yl)piperidine-2,6-dione], the DC50 at SMARCA2 and on SMARCA4 was < 100 nM throughout. Besides, the Dmax at SMARCA2 and at SMARCA4 was > 75% throughout.

Take `O=C1CCC(N2Cc3ccc(N4CCN(Cc5cnc(O[C@H]6CN7c8cc(-c9cccc(F)c9O)nnc8NC[C@]7(C(F)F)C6)c(F)c5)CC4)cc3C2=O)C(=O)N1` (stereo partly drawn) [Example 54, 3-(6-(4-((6-(((6aS,8R)-6a-(difluoromethyl)-2-(3-fluoro-2-hydroxyphenyl)-5,6,6a,7,8,9-hexahydropyrrolo[1′,2′:4,5]pyrazino[2,3-c]pyridazin-8-yl)oxy)-5-fluoropyridin-3-yl)methyl)piperazin-1-yl)-1-oxoisoindolin-2-yl)piperidine-2,6-dione]: the DC50 at SMARCA2 and on SMARCA4 was < 100 nM throughout. The Dmax on SMARCA2 was > 75%; on SMARCA4, 50 to 75%.

On to `Cc1cc(O[C@H]2CN3c4cc(-c5cccc(F)c5O)nnc4NC[C@@]3(C)C2)ncc1CN1CCN(c2ccc3c(c2)C(=O)N(C2CCC(=O)NC2=O)C3)CC1` (stereo partly drawn) [Example 55, 3-(6-(4-((6-(((6aR,8R)-2-(3-fluoro-2-hydroxyphenyl)-6a-methyl-5,6,6a,7,8,9-hexahydropyrrolo[1′,2′:4,5]pyrazino[2,3-c]pyridazin-8-yl)oxy)-4-methylpyridin-3-yl)methyl)piperazin-1-yl)-1-oxoisoindolin-2-yl)piperidine-2,6-dione], for which, on SMARCA2, the DC50 is < 100 nM and the Dmax is > 75%. Besides, on SMARCA4, the 50% degradation concentration (DC50) was < 100 nM and the Dmax is 50 to 75%.

`CC[C@@]12CNc3nnc(-c4cccc(F)c4O)cc3N1C[C@H](Oc1cc(C)c(CN3CCN(c4ccc5c(c4)C(=O)N([C@H]4CCC(=O)NC4=O)C5)CC3)cn1)C2` [Example 56, 3-(6-(4-((6-(((6aR,8R)-6a-Ethyl-2-(3-fluoro-2-hydroxyphenyl)-5,6,6a,7,8,9-hexahydropyrrolo[1′,2′:4,5]pyrazino[2,3-c]pyridazin-8-yl)oxy)-4-methylpyridin-3-yl)methyl)piperazin-1-yl)-1-oxoisoindolin-2-yl)piperidine-2,6-dione]: the DC50 at SMARCA2 and at SMARCA4 was < 100 nM in each case. The Dmax on SMARCA2 is > 75%; at SMARCA4 it was 50 to 75%.

Source of the values: patent US20240165244A1 (Prelude Therapeutics Incorporated, priority 2022, published 2024).
